Measured values: ChEMBL document CHEMBL1201862, “PubChem BioAssay data set” (2004)
Activity calls are given as the source filed them.

Tests used:
[1] = Luminescence Cell-Based Dose Response HTS to Identify Activators of Luciferase Translation or Activity in H4 […] Cells. [Related pubchem assays: 1829 (Project Summary), 1814 (Primary HTS)]; type: functional
[2] = Vero cell cytotoxicity, dose response, cytotoxicity control for Vif-APOBEC3G degradation inhibitor project, Vero cells (AID 1117358); type: functional; details: Human immunodeficiency virus 1, Vero
[3] = inhibitors of SNCA 5'UTR-driven reporter translation, confirmation, H4 neuroglioma cells, luminescence (AID 1988); type: functional, cell-based
[4] = cells
[5] = Luminescence Cell-Based Dose Response HTS to Identify Inhibitors of 5'UTR Stem-Loop Driven Prion Protein mRNA Translation in H4 Neuroglioblastoma Cells. [Related pubchem assays: 1827 (Project Summary), 1813 (Primary HTS)]; type: functional
[6] = LGR2 antagonists, dose response, cell-based, HEK293, CRE-luciferase reporter, cherry pick, set 2 (AID 743343); type: functional;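 also: transfected cells were stimulated with diluted bursicon conditioned medium after compound addition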
[7] = biological target: Oxysterols receptor LXR-beta (Homo sapiens, UniProt P55055); type: functional, cell-based;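 also: Cell-based luminescence dose-response assay of agonist activity at LXR, run as a confirmatory counterscreen to a daf-12 agonist screen; HEK293 cells with Gal4-LXR fusion and GAL4-driven luciferase reporter; agonist potency from rising luciferase signal of a Gal4-LXR reporter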
[8] = test system: HEK293; assay: inhibitors of LMP1-driven NF-kB reporter, dose response, cell-based, HEK293, luciferase, cherry-pick (AID 588343); type: functional; details: Homo sapiens
[9] = A549 cell cytotoxicity, dose response, cytotoxicity control, plate reader, cherry-pick, antagonist series (AID 743412); type: functional, cell-based
[10] = HepG2 cell cytotoxicity, dose response, cytotoxicity control, plate reader, cherry-pick, antagonist series (AID 743416); type: functional, cell-based
[11] = MC4R antagonists, dose response, counter-screen for LGR2 antagonist project, cell-based, plate reader, cherry pick (AID 743444); type: functional;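 also: transfected HEK 293 cells stimulated with alpha-MSH peptide; potency of inhibitors of the alpha-MSH evoked signal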
[12] = HEK293 cell cytotoxicity, dose response, cytotoxicity control, plate reader, cherry-picked samples (AID 743446); type: functional, cell-based
[13] = biological target: fMet-Leu-Phe receptor (Homo sapiens, UniProt P21462); assay: FPR ligands, dose response (AID 519); type: functional
[14] = biological target: NAD-dependent protein deacylase sirtuin-5, mitochondrial (Homo sapiens, UniProt Q9NXA8); assay: SIRT5 desuccinylase inhibitors, dose response, biochemical, fluorescence imaging, cherry-pick, set 5 (AID 720591);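 also: desuccinylation of succinyl peptide AMC substrate read as fluorescence after trypsin release; potency of inhibitors that lower fluorescence and may act on trypsin instead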
[15] = test system: HEK293; assay: HEK293T cell cytotoxicity, dose response, cytotoxicity control, ATP luminescence, cherry-pick samples (AID 687005); type: functional, cell-based; details: Homo sapiens;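 also: cells exposed to compound for 48 hours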
[16] = HEK293 Cytotoxicity Assay Measured in Cell-Based System Using Plate Reader - 7071-01_Inhibitor_Dose_CherryPick_Activity_Set2.; type: functional
[17] = cytotoxicity in OVCAR8 ovarian cancer cells, dose response, PAX8 project, cell-based, plate reader, dry powder samples (AID 743197); type: functional; details: OVCAR-8
[18] = inhibitors of PGC1a acetylation in cells, dose response, cell-based, cherry-picked samples (AID 720514); type: functional;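 also: potency may reflect raised or lowered acetylation signal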
[19] = inhibitors of CMV-promoter luciferase reporter, dose response, counter-screen for Pax8 inhibitor project, cell-based, HEK293, luminescence, dry powder (AID 743020); type: functional
[20] = biological target: Paired box protein Pax-8 (Homo sapiens, UniProt Q06710); assay: inhibitors of PAX8-driven TPO luciferase reporter, dose response, RMG-I cells, cherry-pick (AID 687027); type: functional, cell-based;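 also: luciferase reporter driven by Pax8 target thyroperoxidase promoter measured by SteadyGlo luminescence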
[21] = biological target: Protein Wnt-3a (Mus musculus, UniProt P27467); assay: SAR analysis of small molecule antagonists of Gli-SUFU in a Wnt3a luminescent reporter assay.; type: functional
[22] = T. cruzi growth inhibition in host cells, dose response, cell-based, plate reader, dry powder, set 2 (AID 652275); type: functional
[23] = cytotoxicity toward HCT116 cells – cell-based, CellTiter-Glo luminescence, IC50, dose response (AID 1117332); type: functional; details: HCT-116
[24] = Concentration-dependent survival of SW480 colon cancer line, luminescence detection with CellTiter-Glo, half-maximal inhibitory concentration (AID 1117338); type: functional
[25] = SNU-C1 cell viability reduction, dose response, CellTiter-Glo luminescence (AID 1117323); type: functional, cell-based
[26] = CellTiter-Glo luminescent dose response of DLD-1 viability loss (AID 1117352); type: functional
[27] = cytotoxicity toward Colo320 cells – cell-based, CellTiter-Glo luminescence, IC50, dose response (AID 1117334); type: functional; details: COLO 320
[28] = cytotoxicity toward HT-29 cells – cell-based, CellTiter-Glo luminescence, IC50, dose response (AID 1117330); type: functional
[29] = RKO cell viability reduction, dose response, CellTiter-Glo luminescence (AID 1117322); type: functional
[30] = HCT116 cell viability decrease, GSK3B pretreatment – CellTiter-Glo, IC50, dose response (AID 1117339); type: functional; details: HCT-116
[31] = HeLa 4N DNA content increase, dose response, cell-based, IC50 (AID 1117351); type: functional
[32] = HeLa 2N DNA content increase, dose response, cell-based, IC50 (AID 1117349); type: functional

Chain of Protein Wnt-3a (P27467 whole entry): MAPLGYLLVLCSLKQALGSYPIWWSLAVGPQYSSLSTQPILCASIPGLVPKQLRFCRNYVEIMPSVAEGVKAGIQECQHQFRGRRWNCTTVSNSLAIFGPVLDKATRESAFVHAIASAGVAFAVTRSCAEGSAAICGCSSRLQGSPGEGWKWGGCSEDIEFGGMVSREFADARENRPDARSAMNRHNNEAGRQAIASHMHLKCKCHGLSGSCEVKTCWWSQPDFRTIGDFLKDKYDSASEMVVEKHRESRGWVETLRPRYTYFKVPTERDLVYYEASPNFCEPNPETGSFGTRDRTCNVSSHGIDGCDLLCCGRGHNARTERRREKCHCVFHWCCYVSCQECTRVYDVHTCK
Chain of NAD-dependent protein deacylase sirtuin-5, mitochondrial (Q9NXA8 whole entry): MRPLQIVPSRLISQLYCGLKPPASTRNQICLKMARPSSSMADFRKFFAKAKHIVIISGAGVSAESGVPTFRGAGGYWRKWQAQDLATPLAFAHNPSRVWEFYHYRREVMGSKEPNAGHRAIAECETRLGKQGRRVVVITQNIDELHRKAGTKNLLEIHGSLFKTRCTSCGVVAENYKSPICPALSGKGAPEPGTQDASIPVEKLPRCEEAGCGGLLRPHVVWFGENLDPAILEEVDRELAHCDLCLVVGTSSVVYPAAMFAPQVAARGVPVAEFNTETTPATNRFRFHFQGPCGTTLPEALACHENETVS
Chain of fMet-Leu-Phe receptor (P21462 whole entry): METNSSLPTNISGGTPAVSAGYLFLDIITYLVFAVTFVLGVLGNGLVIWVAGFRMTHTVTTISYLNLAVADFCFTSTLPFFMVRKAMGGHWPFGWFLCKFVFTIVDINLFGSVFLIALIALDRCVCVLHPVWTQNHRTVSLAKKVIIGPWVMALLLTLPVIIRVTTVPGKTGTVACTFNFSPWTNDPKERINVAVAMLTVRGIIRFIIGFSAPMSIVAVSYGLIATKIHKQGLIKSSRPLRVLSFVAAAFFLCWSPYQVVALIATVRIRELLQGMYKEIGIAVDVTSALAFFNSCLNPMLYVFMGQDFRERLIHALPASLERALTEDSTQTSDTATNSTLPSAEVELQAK
Chain of Oxysterols receptor LXR-beta (P55055 whole entry, the tested form may be a part): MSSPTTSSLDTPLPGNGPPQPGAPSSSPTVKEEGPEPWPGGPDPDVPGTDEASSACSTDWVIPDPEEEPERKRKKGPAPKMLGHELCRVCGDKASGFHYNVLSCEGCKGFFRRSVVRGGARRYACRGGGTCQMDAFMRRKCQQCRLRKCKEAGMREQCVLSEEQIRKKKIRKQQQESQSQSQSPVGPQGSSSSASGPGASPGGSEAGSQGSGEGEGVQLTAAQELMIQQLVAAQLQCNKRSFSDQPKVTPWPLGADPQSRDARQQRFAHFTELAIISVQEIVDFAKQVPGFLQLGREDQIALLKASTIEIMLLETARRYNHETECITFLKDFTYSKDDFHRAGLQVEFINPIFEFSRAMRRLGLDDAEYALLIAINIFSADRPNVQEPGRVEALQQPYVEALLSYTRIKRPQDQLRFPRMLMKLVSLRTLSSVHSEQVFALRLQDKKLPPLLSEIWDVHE
Chain of Paired box protein Pax-8 (Q06710 whole entry): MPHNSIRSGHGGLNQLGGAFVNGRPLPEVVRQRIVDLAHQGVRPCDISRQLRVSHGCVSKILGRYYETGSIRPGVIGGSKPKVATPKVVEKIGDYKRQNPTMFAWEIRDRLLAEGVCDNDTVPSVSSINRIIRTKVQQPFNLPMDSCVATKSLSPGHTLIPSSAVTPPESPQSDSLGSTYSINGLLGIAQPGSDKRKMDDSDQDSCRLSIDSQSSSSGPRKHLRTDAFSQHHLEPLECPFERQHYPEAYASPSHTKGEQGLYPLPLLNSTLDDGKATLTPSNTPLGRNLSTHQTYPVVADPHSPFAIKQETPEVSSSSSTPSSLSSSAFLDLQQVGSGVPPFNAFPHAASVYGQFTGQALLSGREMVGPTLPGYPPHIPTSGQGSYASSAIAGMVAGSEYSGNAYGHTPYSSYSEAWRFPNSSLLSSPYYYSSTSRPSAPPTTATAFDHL

Cn1ncc2c(Nc3ccc4ccccc4c3)ncnc21
EC50 [1]: 1.89 µM (active) | CC50 [2]: > 40 µM (active)

Cc1ccc(CSc2nc3cc[nH]cc-3n2)cc1
EC50 [3]: 7.38 µM (active) | EC50 [4]: > 67.5 µM (inactive) | EC50 [5]: 10.8 µM (active) | AC50 [6]: 2.93 µM (active) | EC50 [7]: > 67.5 µM (inactive) | AC50 [8]: 1.9 µM (active) | AC50 [9]: 26.5 µM (active) | AC50 [10]: 31.6 µM (active) | AC50 [11]: 2.98 µM (active) | AC50 [12]: > 52 µM (inactive)

O=C(NCc1cccnc1)C1c2ccccc2C(=O)N1C1CCCCCCC1 (stereo not given)
Ki [13]: 40.9 µM (inactive)

O=C(NCC1(N2CCOCC2)CCCCC1)c1cccc(S(=O)(=O)Nc2ccc(F)cc2)c1
AC50 [14]: > 30 µM (inactive)

Cc1ccc(C2=NN(C(=O)c3ccc(Br)o3)C(c3ccc(C)cc3)C2)cc1 (stereo not given)
AC50 [15]: 20.2 µM (active) | AC50 [16]: 20.2 µM (active)

C[C@H](CO)N1C[C@H](C)[C@H](CN(C)Cc2ccc(Cl)c(Cl)c2)Oc2c(NC(=O)Nc3ccccc3)cccc2C1=O
AC50 [15]: 18.8 µM (active) | AC50 [16]: 18.8 µM (active)

C[C@@H]1CCCCO[C@H](CN(C)Cc2ccc3c(c2)OCO3)[C@@H](C)CN([C@@H](C)CO)C(=O)c2cc(NC(=O)Nc3ccc(C(F)(F)F)cc3)ccc2O1
AC50 [17]: 19.6 µM (active) | AC50 [18]: 11.3 µM (active) | AC50 [19]: 41.9 µM (active) | AC50 [20]: 17.3 µM (active)

CN1CCN(c2cc(NC(=O)c3ccccc3)ncn2)CC1
IC50 [21]: > 21.8 µM (inactive)

O=C(Cc1ccccn1)N1CCCCN2[C@@H](CO)[C@H](c3ccc(Br)cc3)[C@@H]2C1
AC50 [22]: 2.31 µM (active)

CCN(CC)C(=O)c1cccnc1 [NIKETHAMIDE]
IC50 [23]: > 20 µM (inactive) | IC50 [24]: > 20 µM (inactive) | IC50 [25]: > 20 µM (inactive) | IC50 [26]: > 20 µM (inactive) | IC50 [27]: > 20 µM (inactive) | IC50 [28]: > 20 µM (inactive) | IC50 [29]: > 20 µM (inactive) | IC50 [30]: > 20 µM (inactive)

CCCN(CCC)C(=O)C(CCC(=O)OCCCN1CCN(CCOC(=O)Cc2c(C)n(C(=O)c3ccc(Cl)cc3)c3ccc(OC)cc23)CC1)NC(=O)c1ccccc1 (stereo not given) [PROGLUMETACIN]
IC50 [31]: > 10 µM (inactive) | IC50 [32]: > 10 µM (inactive)

COc1ccc(-n2nc(CCC(=O)N(C)O)cc2-c2ccc(Cl)cc2)cc1 [TEPOXALIN]
IC50 [23]: 6.55 µM (inactive) | IC50 [24]: 2.81 µM (active) | IC50 [25]: 1.75 µM (active) | IC50 [26]: 2.08 µM (active) | IC50 [27]: 0.662 µM (active) | IC50 [29]: 4.11 µM (active)
